From ChEMBL document CHEMBL1201862, “PubChem BioAssay data set” (2004)
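96-well plates; 48 h exposure; 5 concentrations. Endpoints by linear interpolation between flanking doses. Not reached: highest tested concentration assigned. The concentration for 50% growth inhibition is given as GI50.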 Calls of active or inactive are those of the source. Rule as the data show it: active = GI50 up to about 1.1 µM and inactive = higher.

Tests used:
Assay in all cases: NCI tumour cell line growth inhibition, 48 h
786-0 = test system: 786-0
A498 = test system: A498
A549 = test system: A549
ACHN = test system: ACHN
BT-549 = test system: BT-549
CAKI-1 = test system: CAKI-1
CCRF-CEM = test system: CCRF-CEM
COLO 205 = test system: COLO 205
DU-145 = test system: DU-145
EKVX = test system: EKVX
HCC 2998 = test system: HCC 2998
HCT-116 = test system: HCT-116
HCT-15 = test system: HCT-15
HL-60 = test system: HL-60
HOP-62 = test system: HOP-62
HOP-92 = test system: HOP-92
HT-29 = test system: HT-29
Hs-578T = test system: Hs-578T
IGROV-1 = test system: IGROV-1
K562 = test system: K562
KM12 = test system: KM12
LOX IMVI = test system: LOX IMVI
M14 = test system: M14
MCF7 = test system: MCF7
MDA-MB-231 = test system: MDA-MB-231
MDA-MB-435 = test system: MDA-MB-435
MDA-N = test system: MDA-N
MOLT-4 = test system: MOLT-4
Malme-3M = test system: Malme-3M
NCI-H226 = test system: NCI-H226
NCI-H23 = test system: NCI-H23
NCI-H460 = test system: NCI-H460
NCI-H522 = test system: NCI-H522
NCI/ADR-RES = test system: NCI/ADR-RES
OVCAR-3 = test system: OVCAR-3
OVCAR-4 = test system: OVCAR-4
OVCAR-5 = test system: OVCAR-5
OVCAR-8 = test system: OVCAR-8
PC-3 = test system: PC-3
RPMI-8226 = test system: RPMI-8226
RXF 393 = test system: RXF 393
SF-268 = test system: SF-268
SF-295 = test system: SF-295
SF-539 = test system: SF-539
SK-MEL-28 = test system: SK-MEL-28
SK-MEL-2 = test system: SK-MEL-2
SK-MEL-5 = test system: SK-MEL-5
SK-OV-3 = test system: SK-OV-3
SN12C = test system: SN12C
SNB-19 = test system: SNB-19
SNB-75 = test system: SNB-75
SW-620 = test system: SW-620
T47D = test system: T47D
TK-10 = test system: TK-10
U-251 = test system: U-251
UACC-257 = test system: UACC-257
UACC-62 = test system: UACC-62
UO-31 = test system: UO-31
SR = test system: SR

## CC(=O)NS(=O)(=O)c1ccc(NCc2cccc3c(=O)c4ccc(Cl)cc4oc23)cc1
786-0
  GI50: > 55.8 µM (inactive)
A498
  GI50: 41.9 µM (inactive)
A549
  GI50: > 80.9 µM (inactive)
ACHN
  GI50: 38.5 µM (inactive)
BT-549
  GI50: > 54.2 µM (inactive)
CAKI-1
  GI50: 20.5 µM (inactive)
CCRF-CEM
  GI50: 4.2 µM (inactive)
COLO 205
  GI50: > 57.7 µM (inactive)
DU-145
  GI50: 61 µM (inactive)
EKVX
  GI50: 38.3 µM (inactive)
HCC 2998
  GI50: 38.5 µM (inactive)
HCT-116
  GI50: > 26.7 µM (inactive)
HCT-15
  GI50: 7.76 µM
HL-60
  GI50: 1.44 µM (inactive)
HOP-62
  GI50: 39.1 µM (inactive)
HOP-92
  GI50: 16.6 µM (inactive)
HT-29
  GI50: 31.8 µM (inactive)
Hs-578T
  GI50: 25.4 µM (inactive)
IGROV-1
  GI50: 24.8 µM (inactive)
K562
  GI50: 6.14 µM (inactive)
KM12
  GI50: 20.5 µM (inactive)
LOX IMVI
  GI50: > 33.2 µM (inactive)
M14
  GI50: 41.1 µM (inactive)
MCF7
  GI50: 8.3 µM (inactive)
MDA-MB-231
  GI50: > 59 µM (inactive)
MDA-MB-435
  GI50: 38.3 µM (inactive)
MDA-N
  GI50: 42.6 µM (inactive)
MOLT-4
  GI50: 11.5 µM (inactive)
Malme-3M
  GI50: 26.4 µM (inactive)
NCI-H226
  GI50: 93.3 µM (inactive)
NCI-H23
  GI50: 33 µM (inactive)
NCI-H460
  GI50: 19.7 µM (inactive)
NCI-H522
  GI50: 27.4 µM (inactive)
NCI/ADR-RES
  GI50: 31.6 µM (inactive)
OVCAR-3
  GI50: 44.6 µM (inactive)
OVCAR-4
  GI50: > 54.5 µM (inactive)
OVCAR-5
  GI50: > 100 µM (inactive)
OVCAR-8
  GI50: 16.9 µM (inactive)
PC-3
  GI50: 38.5 µM (inactive)
RPMI-8226
  GI50: 11.2 µM (inactive)
RXF 393
  GI50: 20.4 µM (inactive)
SF-268
  GI50: 30.8 µM (inactive)
SF-295
  GI50: 51.4 µM (inactive)
SF-539
  GI50: 17.1 µM (inactive)
SK-MEL-28
  GI50: 73.8 µM (inactive)
SK-MEL-2
  GI50: 46 µM (inactive)
SK-MEL-5
  GI50: 40.1 µM (inactive)
SK-OV-3
  GI50: > 53.8 µM (inactive)
SN12C
  GI50: > 65.6 µM (inactive)
SNB-19
  GI50: 57.3 µM (inactive)
SNB-75
  GI50: 64 µM (inactive)
SW-620
  GI50: 34 µM (inactive)
T47D
  GI50: > 92.3 µM (inactive)
TK-10
  GI50: > 63.4 µM (inactive)
U-251
  GI50: 31.6 µM (inactive)
UACC-257
  GI50: > 56.6 µM (inactive)
UACC-62
  GI50: 48 µM (inactive)
UO-31
  GI50: 25.4 µM (inactive)

## CC1(c2ccccc2)CCN(C2CC2)CO1 (stereo not drawn)
786-0
  GI50: 11.4 µM (inactive)
A549
  GI50: > 100 µM (inactive)
ACHN
  GI50: 17.9 µM (inactive)
BT-549
  GI50: 18.3 µM (inactive)
CAKI-1
  GI50: 18.8 µM (inactive)
CCRF-CEM
  GI50: 32.4 µM (inactive)
COLO 205
  GI50: 21.6 µM (inactive)
DU-145
  GI50: 29.6 µM (inactive)
EKVX
  GI50: 20.1 µM (inactive)
HCC 2998
  GI50: 17.1 µM (inactive)
HCT-116
  GI50: 19.9 µM (inactive)
HCT-15
  GI50: 16.5 µM
HL-60
  GI50: 45.2 µM (inactive)
HOP-62
  GI50: > 100 µM (inactive)
HT-29
  GI50: 17.9 µM (inactive)
Hs-578T
  GI50: 19.4 µM (inactive)
IGROV-1
  GI50: 19.6 µM (inactive)
K562
  GI50: 15.3 µM (inactive)
KM12
  GI50: 14.9 µM (inactive)
LOX IMVI
  GI50: 18 µM (inactive)
M14
  GI50: 16.9 µM (inactive)
MCF7
  GI50: 16.2 µM (inactive)
MDA-MB-231
  GI50: 19.3 µM (inactive)
MDA-MB-435
  GI50: 49.9 µM (inactive)
MDA-N
  GI50: 15.1 µM (inactive)
MOLT-4
  GI50: 18.3 µM (inactive)
Malme-3M
  GI50: 19.9 µM (inactive)
NCI-H226
  GI50: > 100 µM (inactive)
NCI-H23
  GI50: 33 µM (inactive)
NCI-H460
  GI50: 14.9 µM (inactive)
NCI/ADR-RES
  GI50: 20.7 µM (inactive)
OVCAR-3
  GI50: 17.7 µM (inactive)
OVCAR-4
  GI50: 18.8 µM (inactive)
OVCAR-5
  GI50: 17.5 µM (inactive)
OVCAR-8
  GI50: 68.1 µM (inactive)
PC-3
  GI50: > 100 µM (inactive)
RPMI-8226
  GI50: 19.8 µM (inactive)
RXF 393
  GI50: 26.9 µM (inactive)
SF-268
  GI50: 16.8 µM (inactive)
SF-295
  GI50: > 100 µM (inactive)
SK-MEL-28
  GI50: 19.7 µM (inactive)
SK-MEL-2
  GI50: > 100 µM (inactive)
SK-MEL-5
  GI50: > 100 µM (inactive)
SK-OV-3
  GI50: > 100 µM (inactive)
SN12C
  GI50: 16.8 µM (inactive)
SNB-19
  GI50: > 100 µM (inactive)
SNB-75
  GI50: 64.9 µM (inactive)
SR
  GI50: 25.5 µM (inactive)
SW-620
  GI50: 19 µM (inactive)
T47D
  GI50: 17.3 µM (inactive)
TK-10
  GI50: 13.8 µM (inactive)
U-251
  GI50: > 100 µM (inactive)
UACC-257
  GI50: 22.4 µM (inactive)
UACC-62
  GI50: 18.1 µM (inactive)
UO-31
  GI50: 18.5 µM (inactive)

## O=C1Cc2c([nH]c3ccc(Br)cc23)-c2cc(O)c(O)cc2N1
786-0
  GI50: > 100 µM (inactive)
A498
  GI50: > 100 µM (inactive)
A549
  GI50: > 100 µM (inactive)
ACHN
  GI50: > 100 µM (inactive)
BT-549
  GI50: > 100 µM (inactive)
CAKI-1
  GI50: > 100 µM (inactive)
COLO 205
  GI50: > 100 µM (inactive)
DU-145
  GI50: > 100 µM (inactive)
EKVX
  GI50: > 100 µM (inactive)
HCC 2998
  GI50: > 100 µM (inactive)
HCT-15
  GI50: > 100 µM
HOP-62
  GI50: > 100 µM (inactive)
HOP-92
  GI50: > 100 µM (inactive)
Hs-578T
  GI50: > 100 µM (inactive)
K562
  GI50: > 100 µM (inactive)
KM12
  GI50: > 100 µM (inactive)
LOX IMVI
  GI50: > 100 µM (inactive)
M14
  GI50: > 100 µM (inactive)
MCF7
  GI50: > 100 µM (inactive)
MDA-MB-231
  GI50: > 100 µM (inactive)
MDA-MB-435
  GI50: > 100 µM (inactive)
MDA-N
  GI50: > 100 µM (inactive)
MOLT-4
  GI50: 71.8 µM (inactive)
NCI-H226
  GI50: > 100 µM (inactive)
NCI-H23
  GI50: > 100 µM (inactive)
NCI-H460
  GI50: > 100 µM (inactive)
NCI-H522
  GI50: > 100 µM (inactive)
NCI/ADR-RES
  GI50: > 100 µM (inactive)
OVCAR-3
  GI50: > 100 µM (inactive)
OVCAR-4
  GI50: > 100 µM (inactive)
OVCAR-5
  GI50: > 100 µM (inactive)
OVCAR-8
  GI50: > 100 µM (inactive)
PC-3
  GI50: > 100 µM (inactive)
RPMI-8226
  GI50: > 100 µM (inactive)
RXF 393
  GI50: > 100 µM (inactive)
SF-268
  GI50: > 100 µM (inactive)
SF-295
  GI50: > 100 µM (inactive)
SK-MEL-28
  GI50: > 100 µM (inactive)
SK-MEL-2
  GI50: > 100 µM (inactive)
SK-OV-3
  GI50: > 100 µM (inactive)
SN12C
  GI50: > 100 µM (inactive)
SNB-19
  GI50: > 100 µM (inactive)
SNB-75
  GI50: > 100 µM (inactive)
SW-620
  GI50: > 100 µM (inactive)
T47D
  GI50: > 100 µM (inactive)
TK-10
  GI50: > 100 µM (inactive)
U-251
  GI50: > 100 µM (inactive)
UACC-257
  GI50: > 100 µM (inactive)
UACC-62
  GI50: > 100 µM (inactive)
UO-31
  GI50: > 100 µM (inactive)
